The text below walks through data of paper PMC5334609, “Separation and Characterization of Angiotensin I Converting Enzyme (ACE) Inhibitory Peptides from Saurida elongata Proteins Hydrolysate by IMAC-Ni^2+” (Marine Drugs, 2017).

By IC50 is commonly meant the midpoint of a concentration-inhibition curve.

This experiment has as its target T1, angiotensin I converting enzyme (ACE) (Oryctolagus cuniculus, UniProt P12822).
T1 construct: ACE (from rabbit lung; 2.0 units/mg of protein); purchased Sigma Chemical Company (St. Louis, MO, USA); host or cells: rabbit lung (tissue-derived)
T1 sequence (P12822 34-1310): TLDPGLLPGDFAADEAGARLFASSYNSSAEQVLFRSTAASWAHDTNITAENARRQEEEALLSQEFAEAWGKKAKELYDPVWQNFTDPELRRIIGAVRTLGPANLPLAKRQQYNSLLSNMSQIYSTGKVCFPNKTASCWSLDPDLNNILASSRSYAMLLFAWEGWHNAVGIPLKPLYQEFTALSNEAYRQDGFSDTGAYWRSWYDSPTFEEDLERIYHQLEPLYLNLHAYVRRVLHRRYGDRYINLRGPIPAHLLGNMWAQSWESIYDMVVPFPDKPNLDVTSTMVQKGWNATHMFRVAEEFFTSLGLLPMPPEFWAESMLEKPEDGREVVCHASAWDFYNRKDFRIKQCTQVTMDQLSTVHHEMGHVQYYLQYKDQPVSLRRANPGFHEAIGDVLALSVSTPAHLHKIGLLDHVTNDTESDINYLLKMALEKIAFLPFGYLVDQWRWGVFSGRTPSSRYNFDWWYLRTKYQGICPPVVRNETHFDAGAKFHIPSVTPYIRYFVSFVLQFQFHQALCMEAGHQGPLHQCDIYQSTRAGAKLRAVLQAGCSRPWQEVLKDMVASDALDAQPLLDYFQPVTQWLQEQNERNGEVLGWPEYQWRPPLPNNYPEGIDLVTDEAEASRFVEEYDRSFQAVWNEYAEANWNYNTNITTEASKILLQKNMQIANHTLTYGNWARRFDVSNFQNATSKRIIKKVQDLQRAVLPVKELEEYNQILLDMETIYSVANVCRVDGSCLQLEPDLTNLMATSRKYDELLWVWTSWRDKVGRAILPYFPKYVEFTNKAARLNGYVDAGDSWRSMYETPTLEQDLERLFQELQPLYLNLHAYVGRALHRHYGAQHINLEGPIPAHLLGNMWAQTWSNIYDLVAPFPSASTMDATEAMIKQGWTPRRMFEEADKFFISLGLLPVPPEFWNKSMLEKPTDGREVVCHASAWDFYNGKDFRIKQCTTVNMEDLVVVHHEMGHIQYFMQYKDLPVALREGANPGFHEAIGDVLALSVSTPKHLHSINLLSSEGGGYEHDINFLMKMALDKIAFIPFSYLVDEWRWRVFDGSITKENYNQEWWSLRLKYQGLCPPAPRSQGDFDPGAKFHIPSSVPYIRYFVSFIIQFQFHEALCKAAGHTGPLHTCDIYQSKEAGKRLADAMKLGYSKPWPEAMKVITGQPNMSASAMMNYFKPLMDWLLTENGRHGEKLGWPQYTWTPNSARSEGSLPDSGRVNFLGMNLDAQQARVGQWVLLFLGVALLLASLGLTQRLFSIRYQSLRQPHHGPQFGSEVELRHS
Briefly: ACE inhibitory activity (IC50 and inhibitory ratio IP). The format is biochemical. The following applies: ACE from rabbit lung. The protocol:
Lizard fish was purchased from a local market in Nanning, China, during the fishing season. It was identified by engineer Cuican at Beihai Institute of Oceanology. Its muscle was rapidly separated, dried with hot air (90 °C) over 8 h, powdered, and then stored in the cryogenic refrigerator. Agarose (BR) and NiSO4·6H2O (AR) were purchased from Sinopharm Chemical Reagent Co., (Beijing, China). Iminodiacetic acid (IDA) was purchased from Sinopharm Chemical Reagent Co., Ltd. (Beijing, China). ACE (from rabbit lung; 2.0 units/mg of protein) and hippuryl-L-histidyl-L-leucine (HHL) were purchased from the Sigma Chemical Company (St. Louis, MO, USA). All other reagents used were of analytical grade.
The affinity column was equilibrated at a flow rate of 1.5 mL·min^−1 with PBS. […] Fractions with affinity for Ni^2+ ion were eluted and monitored at 280 nm. […] The ACE-inhibitory activity of these fractions were determined, and the inhibitory ratios (IP) were calculated according to Wu et al.. The concentrations of protein were measured by the UV method using a wavelength of 280 nm, and the protein recovery rate was calculated as follows: (1) R=m/M×100% • R—Recovery rate of protein, %; • m—Protein content of the sample eluted from IMAC (IMAC fractions), mg; • M—Protein content of the sample before treatment of IMAC chromatographic procedures, mg.

Where a SMILES comes first, the peptide text is derived from it.

For the molecule `N=C(N)NCCC[C@H](NC(=O)[C@H](Cc1ccc(O)cc1)NC(=O)[C@@H](N)CCCNC(=N)N)C(=O)N1CCC[C@H]1C(=O)O` [RYRP, Arg-Tyr-Arg-Pro] (H-RYRP-OH), the IC50 (ACE inhibition, HHL listed as material, inhibitory ratios calculated according to Wu et al. [22]) is 52 µM. In addition, the “IP% (inhibitory activity of fractions separated by RP-HPLC)” value (RP-HPLC fractions of F2 (Zorbax SB C18), inhibitory ratio according to Wu et al. [22], test concentration not given) amounted to 73.05%.
